Experimental data taken from patent US20250340532A1, “HETEROCYCLIC COMPOUND CCR4 INHIBITOR AND USER THEREOF” (Xizang Haisco Pharmaceutical Co., Ltd., priority 2022, published 2025).

Molecular target: T1, CCR4 (Homo sapiens, UniProt P51679)
T1 construct: expressed in transfected cells; host or cells: HEK293
T1 sequence (P51679 1-360): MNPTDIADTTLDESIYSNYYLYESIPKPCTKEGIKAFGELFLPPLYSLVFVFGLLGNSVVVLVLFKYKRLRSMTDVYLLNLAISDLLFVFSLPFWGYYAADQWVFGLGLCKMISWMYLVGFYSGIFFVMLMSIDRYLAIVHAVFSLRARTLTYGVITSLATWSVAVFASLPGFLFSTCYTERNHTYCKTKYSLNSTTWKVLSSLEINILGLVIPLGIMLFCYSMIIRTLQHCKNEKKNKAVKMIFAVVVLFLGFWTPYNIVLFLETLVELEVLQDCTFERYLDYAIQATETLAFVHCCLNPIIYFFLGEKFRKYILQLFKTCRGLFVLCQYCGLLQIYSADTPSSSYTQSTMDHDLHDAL
Test: Calcium flow detected by FLIPR
Format: cell-based
Settings: CCR4/HEK293 cells, agonist CCL17, Fluo-4 calcium signal
Procedure: CCR4/HEK293 cells were added to a 384-well cell culture plate (Greiner #781946) at a rate of 20 μL/well (20,000 cells/well) and incubated overnight in a 37° C., 5% CO2 incubator (Incubator, Thermo). On the second day, the 384-well cell culture plate was taken out of the incubator and the culture medium was removed; Then, 20 μL of detection buffer and 20 μL of 2X Fluo-4 Direct™ (Invitrogen, Cat #F10471) were added. Then, compounds were added at 10 μL/well (compounds were subjected to 4-fold serial dilution, and the highest detection concentration was 10 μM), and the cells were incubated in a 37° C., 5% CO2 incubator for 50 min, and then incubated at room temperature for 10 min. The 384-well culture plate was placed in FLIPR ([…]), 10 μL of 6X agonist CCL17 was added by using an automatic loader, and the fluorescence signal was read immediately. The mean and standard error (Mean±SEM) were statistically analyzed using Graphpad Prism software, and the IC50 value was calculated.
The experimental results are shown in Table 3, where A represents IC50<100 nm; B represents 100 nM≤IC50<500 nM, and C represents 500 nM≤IC50.

C#Cc1cc(Cl)ccc1C(C)Nc1nc(N2CC(C3CN(C4CC(C)(C(=O)O)C4)CCO3)C2)nc(C)c1Cl (single isomer, unassigned) [Compound 30 isomer 1] and C#Cc1ccc(C(C)Nc2nc(N3CC(C4CN(C5CC(C)(C(=O)O)C5)CCO4)C3)nc(C)c2Cl)c(Cl)c1 (single isomer, unassigned) [Compound 28 isomer 1] cannot be ordered by IC50: < 100 nM for the first, < 100 nM for the second.

First: CC(Nc1nc(N2CC(C3CN(C4CC(C)(C(=O)O)C4)CCO3)C2)ncc1Br)c1ccc(Cl)cc1Cl (single isomer, unassigned) [Compound 37 isomer 1]
Second: C[C@@H](Nc1nc(N2CC(C3CN(C4CC(C)(C(=O)O)C4)CCO3)C2)nc2ccsc12)c1ccc(Cl)cc1Cl (single isomer, unassigned) [Compound 54 isomer 1]
The IC50 of the first is lower: < 100 nM for the first, 100 to 500 nM for the second.

C[C@@H](Nc1cc(N2CC([C@H]3CCCN([C@H]4C[C@](C)(C(=O)O)C4)C3)C2)ncn1)c1ccc(Cl)cc1Cl [Compound 15] and C#Cc1ccc(C(C)Nc2cc(N3CC([C@H]4CCCN([C@H]5C[C@](C)(C(=O)O)C5)C4)C3)ncn2)c(Cl)c1 (stereo partly drawn) [Compound 23] cannot be ordered by IC50: < 100 nM for the first, < 100 nM for the second.

C[C@@H](Nc1cc(N2CCC(C3CN(CCO)CCO3)CC2)nc2ccnn12)c1ccc(Cl)cc1Cl (stereo partly drawn) [Compound 112] and C[C@@H](Nc1cc(N2CC([C@H]3CCCN(CCO)C3)C2)nc2ccnn12)c1ccc(Cl)cc1Cl [Compound 24] cannot be ordered by IC50: < 100 nM for the first, < 100 nM for the second.

Cc1nc(N2CC(C3CN(C4CC(C)(c5nn[nH]n5)C4)CCO3)C2)nc(NC(C)c2ccc(Cl)cc2Cl)c1Cl (single isomer, unassigned) [Compound 71 isomer 1] and Cc1nc(N2CC(C3CN(C4CC(c5nn[nH]n5)C4)CCO3)C2)nc(NC(C)c2ccc(Cl)cc2Cl)c1Cl (single isomer, unassigned) [Compound 79 isomer 1] fall in the same range of IC50: 100 to 500 nM for the first, 100 to 500 nM for the second.

First: Cc1nc(N2CC(C3CN(C4CC(C)(C(=O)O)C4)CCN3C)C2)nc(NC(C)c2ccc(Cl)cc2Cl)c1Cl (single isomer, unassigned) [Compound 81 isomer 1]
Second: Cc1nc(N2CCC(C3CN(C4CC(C)(C(=O)O)C4)CCN3C)CC2)nc(NC(C)c2ccc(Cl)cc2Cl)c1Cl (single isomer, unassigned) [Compound 105 isomer 3]
The IC50 of the first is higher: 100 to 500 nM for the first, < 100 nM for the second.

First: CC(Nc1nc(N2CC(F)(C3CN(C4CC(C)(C(=O)O)C4)CCO3)C2)nc(C(F)(F)F)c1Cl)c1ccc(Cl)cc1Cl (single isomer, unassigned) [Compound 65 isomer 3]
Second: Cc1nc(N2CCC(F)(C3CN(C4CC(C)(C(=O)O)C4)CCO3)CC2)nc(NC(C)c2ccc(Cl)cc2Cl)c1Cl (single isomer, unassigned) [Compound 106 isomer 3]
The IC50 of the first is higher: 100 to 500 nM for the first, < 100 nM for the second.

Compared with CC(Nc1cc(C#CC2CCCN(C3CC(C)(C(=O)O)C3)C2)ccc1Cl)c1ccc(Cl)cc1Cl (single isomer, unassigned) [Compound 75 isomer 2], CC(Nc1cc(N2CC(F)(C3CN(C4CC(C)(C(=O)O)C4)CCO3)C2)ccc1Cl)c1ccc(Cl)cc1Cl (single isomer, unassigned) [Compound 86 isomer 1] is lower in IC50: 100 to 500 nM for the first, < 100 nM for the second.

First: Cc1nc(N[C@H](C)c2ccc(Cl)cc2Cl)nc(N2CC([C@H]3CCCN([C@H]4C[C@](C)(C(=O)O)C4)C3)C2)n1 [Compound 17]
Second: Cc1nc(N[C@H](C)c2ccc(Cl)cc2Cl)nc(N2CC([C@H]3CCCN([C@H]4C[C@](C)(C(=O)O)C4)C3)C2)c1Cl [Compound 56]
The IC50 of the first is lower: < 100 nM for the first, 100 to 500 nM for the second. The first is the more potent here.

Cc1nc(N2CC(C3CN(CC(C)(C)O)CCO3)C2)nc(N[C@H](C)c2ccc(Cl)cc2Cl)c1Cl (stereo partly drawn) [Compound 35] and Cc1nc(N2CC([C@@H]3CN(CCO)CCO3)C2)nc(N[C@H](C)c2ccc(Cl)cc2Cl)c1Cl [Compound 31] cannot be ordered by IC50: < 100 nM for the first, < 100 nM for the second.

C[C@@H](Nc1cc(N2CC([C@H]3CCCN(CCO)C3)C2)ncn1)c1ccc(Cl)cc1Cl [Compound 27] and C[C@@H](Nc1cc(N2CC([C@H]3CCCN([C@H]4C[C@](C)(C(=O)O)C4)C3)C2)cnn1)c1ccc(Cl)cc1Cl [Compound 21] cannot be ordered by IC50: < 100 nM for the first, < 100 nM for the second.

First: C[C@@H](Nc1nc(N2CC(C3CN(C4CC(C)(C(=O)O)C4)CCO3)C2)nc2ccccc12)c1ccc(Cl)cc1Cl (single isomer, unassigned) [Compound 67 isomer 1]
Second: CC(Nc1nc(N2CC(C3CN(C4CC(C)(C(=O)O)C4)CCO3)C2)c2ccccc2n1)c1ccc(Cl)cc1Cl (single isomer, unassigned) [Compound 60 isomer 1]
The IC50 of the first is lower: < 100 nM for the first, 100 to 500 nM for the second. The first is the more potent here.

Compared with Cc1nc(N2CC(C3CN(C4CC(C)(C#N)C4)CCO3)C2)nc(N[C@H](C)c2ccc(Cl)cc2Cl)c1Cl (stereo partly drawn) [Compound 70], C[C@@H](Nc1nc(N2CC(C3CN(C4CC(C)(C(=O)O)C4)CCO3)C2)nc(C(F)F)c1Cl)c1ccc(Cl)cc1Cl (single isomer, unassigned) [Compound 77 isomer 2] is lower in IC50: 100 to 500 nM for the first, < 100 nM for the second.

First: C[C@@H](Nc1nc(N2CC([C@H]3CCCN([C@H]4C[C@](C)(C(=O)O)C4)C3)C2)c2ccccc2n1)c1ccc(Cl)cc1Cl [Compound 40]
Second: C[C@@H](Nc1nc2c(c(N3CC([C@H]4CCCN([C@H]5C[C@](C)(C(=O)O)C5)C4)C3)n1)COC2)c1ccc(Cl)cc1Cl [Compound 45]
The IC50 of the first is lower: < 100 nM for the first, 100 to 500 nM for the second. The first is the more potent here.

C#Cc1ccc(C(C)Nc2cc(N3CC([C@H]4CCCN([C@H]5C[C@](C)(C(=O)O)C5)C4)C3)nc3ccnn23)c(Cl)c1 (stereo partly drawn) [Compound 22] and C#Cc1ccc(C(C)Nc2nc(N3CC([C@H]4CCCN([C@H]5C[C@](C)(C(=O)O)C5)C4)C3)nc(C)c2Cl)c(Cl)c1 (single isomer, unassigned) [Compound 11 isomer 1] cannot be ordered by IC50: < 100 nM for the first, < 100 nM for the second.

Cc1nc(C2CN(C3CCCN(C4CC(C)(C(=O)O)C4)C3)C2)nc(NC(C)c2ccc(Cl)cc2Cl)c1Cl (single isomer, unassigned) [Compound 20 isomer 3] and Cc1nc(N2CC=C(C3CN(C4CC(C)(C(=O)O)C4)CCO3)CC2)nc(NC(C)c2ccc(Cl)cc2Cl)c1Cl (single isomer, unassigned) [Compound 107 isomer 1] cannot be ordered by IC50: < 100 nM for the first, < 100 nM for the second.

First: Cc1nc(N2CC(C3CN(C4CC(c5nn[nH]n5)C4)CCO3)C2)nc(NC(C)c2ccc(Cl)cc2Cl)c1Cl (single isomer, unassigned) [Compound 79 isomer 2]
Second: Cc1nc(N2CC(C3CN(CCO)CCN3C)C2)nc(NC(C)c2ccc(Cl)cc2Cl)c1Cl (single isomer, unassigned) [Compound 80 isomer 1]
The IC50 of the first is higher: 100 to 500 nM for the first, < 100 nM for the second. The second is the more potent here.

CC(Nc1nc(N2CC(C3C=CCN(C4CC(C)(C(=O)O)C4)C3)C2)nc(C(F)F)c1Cl)c1ccc(Cl)cc1Cl (single isomer, unassigned) [Compound 85 isomer 1] and Cc1cc(N2CC([C@H]3CCCN([C@H]4C[C@](C)(C(=O)O)C4)C3)C2)cc(N[C@H](C)c2ccc(Cl)cc2Cl)n1 [Compound 39] cannot be ordered by IC50: < 100 nM for the first, < 100 nM for the second.

C[C@@H](Nc1nc2c(c(N3CC(C4CN(C5CC(C)(C(=O)O)C5)CCO4)C3)n1)CN(C)C2)c1ccc(Cl)cc1Cl (single isomer, unassigned) [Compound 68 isomer 1] and Cc1nc(N2CC([C@H]3CCCN([C@H]4C[C@](C)(C(=O)O)C4)C3)C2)nc(NC(C)c2cc3c(cc2Cl)CC3)c1Cl (stereo partly drawn) [Compound 13] fall in the same range of IC50: 100 to 500 nM for the first, 100 to 500 nM for the second.

For C[C@H](c1ccc(Cl)cc1Cl)n1nc(C#N)c2ncc(N3CC(C4CN(CCO)CCO4)C3)nc21 (stereo partly drawn) [Compound 19], the IC50 was < 100 nM.
